Measurements from patent US10308667B2, “Oxadiazolopyridine derivatives for use as ghrelin O-acyl transferase (GOAT) inhibitors” (Boehringer Ingelheim International GmbH, priority 2016, dated 2019).

target: human GOAT (Homo sapiens (Human), UniProt Q96T53); test: Determination of hGOAT Activity in HEK293 Cells after Incubation with Test Compound; assay type: cell-based; conditions: HEK293 cells stably transfected with preproghrelin and human GOAT; octanoate-BSA 100 μM; acyl-ghrelin in medium by ELISA after 5 hours
Sequence (Q96T53 whole entry): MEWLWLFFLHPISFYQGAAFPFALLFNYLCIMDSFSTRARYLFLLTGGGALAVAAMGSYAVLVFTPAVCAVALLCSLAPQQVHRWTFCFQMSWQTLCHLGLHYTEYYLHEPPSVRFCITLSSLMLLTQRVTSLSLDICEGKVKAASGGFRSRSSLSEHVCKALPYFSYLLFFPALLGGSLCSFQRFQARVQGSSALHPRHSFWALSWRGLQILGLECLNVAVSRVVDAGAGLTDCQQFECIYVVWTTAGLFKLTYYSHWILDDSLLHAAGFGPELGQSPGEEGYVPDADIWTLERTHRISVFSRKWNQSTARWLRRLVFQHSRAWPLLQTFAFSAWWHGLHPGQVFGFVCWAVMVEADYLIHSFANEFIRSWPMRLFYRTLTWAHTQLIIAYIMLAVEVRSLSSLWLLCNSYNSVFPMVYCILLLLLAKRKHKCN
Description: Determination of hGOAT Activity in HEK293 Cells after Incubation with Test Compound
HEK293 cells stably transfected with two expression vectors, one coding for preproghrelin cDNA and a second for the expression of human GOATcDNA are used as a cellular model. After feeding the cells with octanoic acid for 5 hours, acyl-ghrelin is measured in cell culture medium by an ELISA procedure.
Cellline: Hek293 hGOAT/PPGhrl Clone #1B8Sodium octanoate, Sigma, Cat.-No. C5038
BD Poly-D-Lysin 384-well Plates, black-clear polystyrene BD Bioscience Cat.-No. […] ELISA human acylated Ghrelin Kit purchased from Bertin Pharman (detailed composition of buffers e.g. wash-puffer, ELISA buffer not known)
Cells are plated with a density of 5000 cells/well in 384-well poly-D-lysin plates and incubated for 1 day at 37° C., 5% CO2 in DMEM medium, 10% FCS, 1×NEAA, Puromycin (0.5 μg/ml) and G418 (1 mg/ml). Then the medium is changed to a identical medium without FCS and containing Octanoate-BSA (final concentration 100 μM each) and compound in DMSO (final DMSO concentration 0.3%). After incubation for 5 hours acylghrelin in the medium is measured by ELISA
The medium sample is diluted 1:25 in Elisa buffer, A 25 ul aliquot is transferred to a 384-well ELISA plate previously washed 4 times with 100 μL wash buffer, and 25 μl tracer-solution is added. After incubation overnight (˜20 h) at 4° C. temperature the plate is washed 4 times with 100 μl wash-buffer per well. Finally 50 μl Ellman's reagent is added to each well and the plate is incubated in the dark for 20 minutes. The absorbance is measured at 405 nm in an Envision multilabel reader and the amount of acylated ghrelin is calculated according to a acylated ghrelin standard curve provided in the same plate.
The analysis of the data is performed by calculation of the percentage of acyl-ghrelin produced in the presence of test compound compared to the amount of acyl-ghrelin produced in the vehicle control samples. An inhibitor of the GOAT enzyme will give values between 100% CTL (no inhibition) and 0% CTL (complete inhibition). IC50 values are calculated with Assay Explorer or other suited software based on curve fitting of results of 8 different compound concentrations.

Structure (SMILES)	IC50
Cc1nc2nonc2c(N)c1Cc1ccc(OC(F)(F)F)c(C#N)n1 [Example 33, 6-(7-Amino-5-methyl-[1,2,5]oxadiazolo[3,4-b]pyridin-6-ylmethyl)-3-trifluoromethoxy-pyridine-2-carbonitrile]	0.3 nM
Cc1nc2nonc2c(N)c1Cc1ncc(C#N)c(C(F)(F)F)n1 [Example 78, 2-(7-amino-5-methyl-[1,2,5]oxadiazolo[3,4-b]pyridin-6-ylmethyl)-4-(trifluoromethyl)pyrimidine-5-carbonitril]	0.36 nM
Cc1nc2nonc2c(N)c1Cc1ccc(C#N)c(F)n1 [Example 72, 6-(7-Amino-5-methyl-[1,2,5]oxadiazolo[3,4-b]pyridin-6-ylmethyl)-2-fluoro-nicotinonitrile]	1.1 nM
Cc1nc2nonc2c(N)c1Cc1cc(Cl)cc(C#N)n1 [Example 38, 6-(7-amino-5-methyl-[1,2,5]oxadiazolo[3,4-b]pyridin-6-ylmethyl)-4-chloropyridine-2-carbonitrile]	2.6 nM
Cc1nc2nonc2c(N)c1Cc1ncc(Cl)c(C(F)F)n1 [Example 166, 6-[5-chloro-4-(difluoromethyl)pyrimidin-2-yl]methyl-5-methyl-[1,2,5]oxadiazolo[3,4-b]pyridin-7-amine]	0.38 nM
Cc1nc2nonc2c(N)c1Cc1cccc(-c2cncn2C)n1 [Example 59, 5-Methyl-6-[6-(3-methyl-3H-imidazol-4-yl)-pyridin-2-ylmethyl]-[1,2,5]oxadiazolo[3,4-b]pyridin-7-ylamine]	0.34 nM
Cc1nc2nonc2c(N)c1Cc1ccc(C#N)c(C2CC2)n1 [Example 43, 6-(7-amino-5-methyl-[1,2,5]oxadiazolo[3,4-b]pyridin-6-ylmethyl)-2-cyclopropylpyridine-3-carbonitrile]	0.37 nM
Cc1nc2nonc2c(N)c1Cc1nccc(C(F)(F)F)n1 [Example 34, 5-Methyl-6-(4-trifluoromethyl-pyrimidin-2-ylmethyl)-[1,2,5]oxadiazolo[3,4-b]pyridin-7-ylamine]	3.2 nM
Cc1nc2nonc2c(N)c1Cc1ccc(Br)c(S(C)(=O)=O)n1 [Example 161, 6-(5-Bromo-6-methanesulfonyl-pyridin-2-ylmethyl)-5-methyl-[1,2,5]oxadiazolo[3,4-b]pyridin-7-ylamine]	0.89 nM
Cc1nc2nonc2c(N)c1Cc1cc(C(F)(F)F)c(C#N)cn1 [Example 74, 6-(7-Amino-5-methyl-[1,2,5]oxadiazolo[3,4-b]pyridin-6-ylmethyl)-4-trifluoromethyl-nicotinonitrile]	2 nM
Cc1nc2nonc2c(N)c1Cc1ccc(S(C)(=O)=O)c(O)n1 [Example 159, 6-(7-Amino-5-methyl-[1,2,5]oxadiazolo[3,4-b]pyridin-6-ylmethyl)-3-methanesulfonyl-pyridin-2-ol]	15 nM
Cc1nc2nonc2c(N)c1Cc1nccc(C#N)n1 [Example 51, 2-(7-amino-5-methyl-[1,2,5]oxadiazolo[3,4-b]pyridin-6-ylmethyl)pyrimidine-4-carbonitrile]	20 nM
Cc1nc2nonc2c(N)c1Cc1cccc(C(=O)N(C)C)n1 [Example 55, 6-(7-Amino-5-methyl-[1,2,5]oxadiazolo[3,4-b]pyridin-6-ylmethyl)-pyridine-2-carboxylic Acid Dimethylamide]	3.9 nM
Cc1nc2nonc2c(N)c1Cc1ccc(N2CC(F)(F)C2)c(C#N)n1 [Example 151, 6-(7-Amino-5-methyl-[1,2,5]oxadiazolo[3,4-b]pyridin-6-ylmethyl)-3-(3,3-difluoro-azetidin-1-yl)-pyridine-2-carbonitrile]	1.8 nM
Cc1nc2nonc2c(N)c1Cc1ccc(OC(F)F)c(=O)[nH]1 [Example 120, 6-(7-Amino-5-methyl-[1,2,5]oxadiazolo[3,4-b]pyridin-6-ylmethyl)-3-difluoromethoxy-1H-pyridin-2-one]	4.3 nM
Cc1cccc(Cc2c(C)nc3nonc3c2N)n1 [Example 53, 5-Methyl-6-(6-methyl-pyridin-2-ylmethyl)-[1,2,5]oxadiazolo[3,4-b]pyridin-7-ylamine]	2.6 nM
Cc1nc2nonc2c(N)c1Cc1cc(C(N)=O)ccn1 [Example 29, 2-(7-Amino-5-methyl-[1,2,5]oxadiazolo[3,4-b]pyridin-6-ylmethyl)-isonicotinamide]	16 nM
Cc1nc2nonc2c(N)c1Cc1ccc(Cl)c(C#N)n1 [Example 47, 6-(7-amino-5-methyl-[1,2,5]oxadiazolo[3,4-b]pyridin-6-ylmethyl)-3-chloropyridine-2-carbonitrile]	2.4 nM
Cc1nc2nonc2c(N)c1Cc1cc(C#N)c(C(F)(F)F)cn1 [Example 2, 2-(7-Amino-5-methyl-[1,2,5]oxadiazolo[3,4-b]pyridin-6-ylmethyl)-5-trifluoromethyl-isonicotinonitrile]	3.6 nM
Cc1nc2nonc2c(N)c1Cc1ccc(OCC(F)F)c(C#N)n1 [Example 116, 6-(7-Amino-5-methyl-[1,2,5]oxadiazolo[3,4-b]pyridin-6-ylmethyl)-3-(2,2-difluoro-ethoxy)-pyridine-2-carbonitrile]	0.83 nM
Cc1nc2nonc2c(N)c1Cc1ccc(N2CCC(F)(F)C2)c(C#N)n1 [Example 150, 6-(7-Amino-5-methyl-[1,2,5]oxadiazolo[3,4-b]pyridin-6-ylmethyl)-3-(3,3-difluoro-pyrrolidin-1-yl)-pyridine-2-carbonitrile]	2.3 nM

Now those with a lower IC50, led by results:

IC50	Structure (SMILES)
0.29 nM	Cc1nc2nonc2c(N)c1Cc1ccc(-c2cnn3c2CCC3)c(N)n1 [Example 65, 6-[6-Amino-5-(5,6-dihydro-4H-pyrrolo[1,2-b]pyrazol-3-yl)-pyridin-2-ylmethyl]-5-methyl-[1,2,5]oxadiazolo[3,4-b]pyridin-7-ylamine]
0.21 nM	Cc1nc2nonc2c(N)c1Cc1cccc(-c2c[nH]nc2C(F)(F)F)n1 [Example 62, 5-Methyl-6-[6-(3-trifluoromethyl-1H-pyrazol-4-yl)-pyridin-2-ylmethyl]-[1,2,5]oxadiazolo[3,4-b]pyridin-7-ylamine]
0.19 nM	Cc1nc2nonc2c(N)c1Cc1ccc(Oc2ccnn2C)c(C#N)n1 [Example 117, 6-(7-Amino-5-methyl-[1,2,5]oxadiazolo[3,4-b]pyridin-6-ylmethyl)-3-(2-methyl-2H-pyrazol-3-yloxy)-pyridine-2-carbonitrile]
0.15 nM	Cc1nc2nonc2c(N)c1Cc1ccc(C(F)(F)F)c(C(=O)C(C)C)n1 [Example 49, 1-[6-(7-Amino-5-methyl-[1,2,5]oxadiazolo[3,4-b]pyridin-6-ylmethyl)-3-trifluoromethyl-pyridin-2-yl]-2-methyl-propan-1-one]
0.14 nM	Cc1nc2nonc2c(N)c1Cc1ccc(-c2c(C)noc2C)c(N)n1 [Example 66, 6-[6-Amino-5-(3,5-dimethyl-isoxazol-4-yl)-pyridin-2-ylmethyl]-5-methyl-[1,2,5]oxadiazolo[3,4-b]pyridin-7-ylamine]
0.11 nM	Cc1nc2nonc2c(N)c1Cc1ccc(C#N)c(OCCF)n1 [Example 106, 6-(7-Amino-5-methyl-[1,2,5]oxadiazolo[3,4-b]pyridin-6-ylmethyl)-2-(2-fluoro-ethoxy)-nicotinonitrile]
0.1 nM	Cc1nc2nonc2c(N)c1Cc1cccc(C2(C#N)CCCC2)n1 [Example 64, 1-[6-(7-Amino-5-methyl-[1,2,5]oxadiazolo[3,4-b]pyridin-6-ylmethyl)-pyridin-2-yl]-cyclopentanecarbonitrile]
0.091 nM	Cc1nc2nonc2c(N)c1Cc1ccc(OC(F)F)c(N)n1 [Example 119, 6-(6-Amino-5-difluoromethoxy-pyridin-2-ylmethyl)-5-methyl-[1,2,5]oxadiazolo[3,4-b]pyridin-7-ylamine]
0.073 nM	Cc1nc2nonc2c(N)c1Cc1ccc(C2CC2)c(C#N)n1 [Example 42, 6-(7-amino-5-methyl-[1,2,5]oxadiazolo[3,4-b]pyridin-6-ylmethyl)-3-cyclopropylpyridine-2-carbonitrile]
0.056 nM	Cc1nc2nonc2c(N)c1Cc1ccc(Br)c(NCC(C)(C)C(N)=O)n1 [Example 124, 3-[6-(7-Amino-5-methyl-[1,2,5]oxadiazolo[3,4-b]pyridin-6-ylmethyl)-3-bromo-pyridin-2-ylamino]-2,2-di methyl-propionamide]
0.027 nM	Cc1nc2nonc2c(N)c1Cc1ccc(C#N)c(N2CC(F)(F)C2)n1 [Example 142, 6-(7-Amino-5-methyl-[1,2,5]oxadiazolo[3,4-b]pyridin-6-ylmethyl)-2-(3,3-difluoro-azetidin-1-yl)-nicotinonitrile]
0.022 nM	COc1nc(Cc2c(C)nc3nonc3c2N)ccc1Br [Example 97, 6-(5-Bromo-6-methoxy-pyridin-2-ylmethyl)-5-methyl-[1,2,5]oxadiazolo[3,4-b]pyridin-7-ylamine]
